The results in this text go back to ChEMBL document CHEMBL5233272, “Nimbolide, a Neem Limonoid, Is a Promising Candidate for the Anticancer Drug Arsenal” (J Med Chem, 2021).

A short description of data set [1]: Acute toxicity in ip dosed rat assessed as lethal dose. The conditions noted are these: in vivo. In kind it is organism-based.
Data set [2] can be described thus: Drug concentration in athymic Nu/Nu mouse tumor xenografted with human HCT-116 cells transfected with luciferase at 20 mg/kg, ip administered daily for 10 days by HPLC analysis. In kind it is ADME, organism-based, Neoplasm. The conditions noted are these: time 10 day, read-out: Drug uptake.
Data set [3] in a line: Oral bioavailability in Sprague-Dawley rat at 10 mg/kg measured upto 72 hrs. In kind it is ADME, organism-based. The conditions noted are these: in vivo.
A short description of data set [4]: Drug concentration in athymic Nu/Nu mouse plasma xenografted with human HCT-116 cells transfected with luciferase at 20 mg/kg, ip administered daily for 10 days by HPLC analysis. The conditions noted are these: time 10 day, read-out: Drug uptake. Format: ADME, organism-based. A general note: A xenograft is tissue or cells of one species grown in another, often human tumour cells in immunodeficient mice.

Data set [5] can be described thus: Acute toxicity in ip dosed Syrian golden hamster assessed as lethal dose. Format: organism-based, Mesocricetus auratus. The conditions noted are these: in vivo.
Data set [6] is described as follows: Oral bioavailability in Sprague-Dawley rat at 50 mg/kg measured upto 72 hrs. Conditions: in vivo. In kind it is ADME, organism-based.
The nature of data set [7]: Drug concentration in athymic Nu/Nu mouse tumor xenografted with human HCT-116 cells transfected with luciferase at 5 mg/kg, ip administered daily for 10 days by HPLC analysis. The conditions noted are these: time 10 day, read-out: Drug uptake. In kind it is ADME, organism-based, Neoplasm.
Data set [8] can be described thus: Oral bioavailability in Sprague-Dawley rat at 30 mg/kg measured upto 72 hrs. Format: ADME, organism-based. The conditions noted are these: in vivo.
A short description of data set [9]: Acute toxicity in ip dosed Swiss albino mouse assessed as lethal dose. In kind it is organism-based. Conditions: in vivo.
A short description of data set [10]: Cmax in mouse at 3 mg/kg, po measured after 2 hrs by LC-MS/MS analysis. Format: ADME, organism-based. Details: dose 3 mg/kg, time 2 hrs, route po. The conditions noted are these: in vivo.
The nature of data set [11]: Acute toxicity in iv dosed Swiss albino mouse assessed as lethal dose. Format: organism-based. The conditions noted are these: in vivo.
Data set [12] can be described thus: Drug concentration in athymic Nu/Nu mouse plasma xenografted with human HCT-116 cells transfected with luciferase at 5 mg/kg, ip administered daily for 10 days by HPLC analysis. In kind it is ADME, organism-based. Conditions: time 10 day, read-out: Drug uptake.

Regarding `COC(=O)C[C@H]1[C@]2(C)C3=C(C)[C@H](c4ccoc4)C[C@H]3O[C@@H]2[C@@H]2OC(=O)[C@]3(C)C=CC(=O)[C@@]1(C)[C@@H]23` [NIMBOLIDE], the LD50 (commonly the dose expected to kill half of the subjects tested) in [1] amounted to 600 mg/kg; in data set [5], 500 mg/kg; in data set [9], 225 mg/kg; in data set [11], 24 mg/kg. The concentration at 240 h in data set [2] was 868 ng/g; in data set [4], 409 ng/mL; in data set [7], 345 ng/g; in data set [12] it was 222 ng/mL. The bioavailability (as a rule, the share of a dose that reaches the circulation, judged against a reference dose that is usually intravenous) in data set [3] stood at 2.72%; in data set [6], 3.06%; in data set [8] it was 1.76%. The Cmax (usually the maximum level reached in the sampled fluid or tissue) in data set [10] was 780 nM.
